One data set deals with Aβ40. The experiment in a line: Pre-plaque APP51/16 mice: brain Aβ40 after single or 4-day oral dosing. In kind it is in vivo, mouse. As for the experimental part: This strain of transgenic mice was selected since it resembles the situation in sporadic human AD, where no APP mutation is present. […] Next, we dosed the compound p.o. once daily for 4 days at 2 doses to pre-plaque APP51/16 mice (age: 8 months) in order to achieve steady state exposure, and measured the Aβ40 reduction 24 h after the last dose. […] In order to achieve a >50 % reduction of brain Aβ over a 24 h period in mice we selected this dose for a chronic study.
Frozen rodent forebrains were homogenized in 9 volumes of ice-cold Tris-buffered saline (pH 7.4) containing Complete protease inhibitor cocktail (Roche Diagnostics, Penzberg, Germany) using a Sonifier 450 (Branson) and stored in aliquots at -80 °C. Triton X-100 soluble Aβ was extracted by mixing 50 μl 2 % Triton X-100 with 50 μl homogenate, incubating for 15 min on ice with vortexing, followed by ultracentrifugation at 100000xg for 15 min. The clear supernatant was diluted to a final forebrain dilution of 1:100 and used for analysis. For the extraction of insoluble amyloid peptides, 50 μl forebrain homogenate was mixed with 117 μl of 100 % formic acid and stored on ice for 15 min with vortexing. Samples were neutralized with 950 μl 1 M Tris base, containing Complete protease inhibitor cocktail (Roche, Basle, Switzerland) and stored overnight at room temperature. The supernatant after 15 min centrifugation at 14000 rpm was used for analysis.
Aβ38, 40 and 42 were determined using the electro-chemiluminescence immuno assay kits from Meso Scale Discovery (Rockville, MD, USA) in either singlet or triplex format. Samples and standards were prepared according to the manufactures protocols. […] Soluble APPα and sAPPβ from APP51/16 mice were determined from the 100000xg supernatant and analyzed with Meso Scale Discovery commercial kits. C-terminal fragments C83 and C99 were determined from Western blots. […] After transfer to Immobilon P membranes (Bio-Rad Bedford MA USA), bands were probed with APP C8 antibody (recognizing the C-terminus of APP) and detected with goat anti-mouse IgG Fab fragment AlexaFluor680 (Invitrogen). […]

In the next data set the test system is SweAPP CHO cells. Nature of the data set: Aβ40 release from Swedish human APP751 CHO cells. The settings on record: Cricetulus griseus, 24 h, read-out: IC50 Aβ40 release.
The nature of data set [1]: Pharmacokinetics after i.v. and oral application, beagle dog.
Method: Pharmacokinetic studies used male Sprague Dawley rats, C57BL6 mice and Beagle dogs, obtained from Charles River (France, rodents) and Marshall (Italy, dogs). […] Blood was collected i.v., by sublingual bleeding or at sacrifice whereas a serial blood sampling allowed obtaining individual PK profiles in these species. Blood samples were taken between 5 min (intravenous) and 15 min (oral) up to 24 h (mice), 48 h (rat) and 408 h (dog).
The absorption and disposition parameters were estimated by a non-compartmental analysis of the mean blood concentration (n = 3 mice) or individual concentration (rats, dogs) versus time profile after oral and intravenous administration.
A short description of data set [2]: Chronic 6-week treatment of APP51/16 mice: NB-360 blood exposure. The settings on record: female, APP51/16 (C57BL/6 background), mouse, po, 100 μmol/kg.
Method: Brain samples were homogenized with 2 mM KH2PO4 buffer (approx. 1/2, w/v). […] The LLOQ ranged between 0.4 and 2 ng/mL in blood and 1.2 ng/g and 6 ng/g in brain.
Rat studies used male Charles River Sprague-Dawley rats of approx. 300 g body weight. Female transgenic APP51/16 mice (C57BL/6 background strain) were bred in-house. APP51/16 mice express human wild-type APP751 under the control of a Thy-1 expression cassette in brain neurons, and are characterized by mostly cortical, but few vascular amyloid-β deposits. […] Dosing was per os in a dose volume of 10 ml/kg for mice and 5 ml/kg for rats. […] Rodents were deeply anesthetized for CSF sampling from the cisterna magna, accessed through the exposed atlanto-occipital membrane. CSF was harvested into protein lo-bind Eppendorf tubes and frozen on dry ice. Animals were decapitated while anesthetized and blood and brain samples collected. Brains were briefly rinsed in PBS, quickly wet-dissected and samples frozen on a metal plate precooled on dry ice. All samples were stored at -80 ° C until analysis. The dog study was carried out at Charles River Laboratories, Canada. Male dogs were used with n = 4 per group. A cannula with an access port was implanted under anesthesia, to allow serial CSF sampling from the lateral ventricle. Dogs were allowed to recover from the surgery for 2 weeks before the start of the experiment.

Take `Cc1cc(C#N)cnc1C(=O)Nc1ccc(F)c([C@]2(C)CO[C@@](C)(C(F)(F)F)C(N)=N2)c1` [NB-360]: the “lowering of TX-100 soluble brain Aβ40” value in the data set with Aβ40 (pre-plaque APP51/16 mice (3-5 months), 30 μmol/kg single oral dose, 4 h) worked out at 79.6%. The “reduction of forebrain Aβ” value with Aβ40 (pre-plaque APP51/16 mice (8 months), 30 μmol/kg/d p.o. 4 days, 24 h after last dose) is recorded as 15.1%. The “Aβ40 reduction in forebrain” value in the data set with Aβ40 (pre-plaque APP51/16 mice (8 months), 100 μmol/kg/d p.o. 4 days, 24 h after last dose) stood at 52.1%. The IC50 (as a rule, the midpoint of a concentration-inhibition curve) with SweAPP CHO cells came out at 33 nM. For the same molecule, the “Vol. of Distribution” value in data set [1] (2 μmol/kg i.v.) amounted to 0.9 L/kg. Moreover, in data set [1] (Beagle, blood, iv, 2 umol/kg), the clearance was found to be 0.4 mL/min/kg and the half-life (as a rule, the time needed for the level to fall by half in the phase considered) was 36.2 h. The bioavailability (as a rule, the share of a dose that reaches the circulation, judged against a reference dose that is usually intravenous) in data set [1] (Beagle, blood, po, 2 umol/kg) turned out to be 62%. Moreover, in data set [2], the concentration at 4 h is 3200 nM and the concentration at 24 h worked out at 130 nM.

The values above are taken from PMC4559881 (Molecular Neurodegeneration, 2015).
